The nature of assay [1]: Luminescence Cell-Based Dose Retest to Confirm Inhibitors of Cancer Stem Cells. [Related pubchem assays (depositor defined):AID2717, AID2721]. The note with it: Homo sapiens. It is filed as functional.
Assay [2] has as its target T1, Replicative DNA helicase DnaB (Mycobacterium tuberculosis, UniProt P9WMR3).
T1 sequence (P9WMR3 whole entry): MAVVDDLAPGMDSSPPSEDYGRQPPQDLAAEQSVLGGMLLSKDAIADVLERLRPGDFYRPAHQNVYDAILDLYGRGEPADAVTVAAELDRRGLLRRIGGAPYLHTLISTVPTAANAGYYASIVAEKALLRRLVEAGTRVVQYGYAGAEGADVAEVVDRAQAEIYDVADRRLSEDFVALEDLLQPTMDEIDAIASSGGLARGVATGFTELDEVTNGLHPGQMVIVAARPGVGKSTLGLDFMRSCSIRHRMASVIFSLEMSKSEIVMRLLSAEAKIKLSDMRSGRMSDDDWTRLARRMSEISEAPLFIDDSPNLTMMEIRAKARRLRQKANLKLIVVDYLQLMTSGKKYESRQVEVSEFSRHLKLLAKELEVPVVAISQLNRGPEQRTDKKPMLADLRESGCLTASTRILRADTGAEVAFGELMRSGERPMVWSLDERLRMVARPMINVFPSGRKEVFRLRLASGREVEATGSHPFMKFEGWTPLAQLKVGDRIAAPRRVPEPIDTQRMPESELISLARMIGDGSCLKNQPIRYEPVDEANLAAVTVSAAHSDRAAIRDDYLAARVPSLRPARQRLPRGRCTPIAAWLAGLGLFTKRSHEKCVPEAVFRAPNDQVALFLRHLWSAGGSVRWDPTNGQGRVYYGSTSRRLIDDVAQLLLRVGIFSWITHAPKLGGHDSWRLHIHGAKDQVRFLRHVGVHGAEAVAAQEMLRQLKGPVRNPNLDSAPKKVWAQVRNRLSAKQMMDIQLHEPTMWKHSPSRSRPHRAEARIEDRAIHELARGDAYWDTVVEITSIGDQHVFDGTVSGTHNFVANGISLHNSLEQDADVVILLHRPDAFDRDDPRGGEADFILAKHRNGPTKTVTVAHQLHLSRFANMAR
The assay is described as follows: DnaB intein splicing inhibitors, dose response, biochemical, cell-free fluorescence (AID 449749). It is filed as functional.

Another assay concerns the target T2, Protein RecA (Mycobacterium tuberculosis, UniProt P9WHJ3).
T2 sequence (P9WHJ3 whole entry): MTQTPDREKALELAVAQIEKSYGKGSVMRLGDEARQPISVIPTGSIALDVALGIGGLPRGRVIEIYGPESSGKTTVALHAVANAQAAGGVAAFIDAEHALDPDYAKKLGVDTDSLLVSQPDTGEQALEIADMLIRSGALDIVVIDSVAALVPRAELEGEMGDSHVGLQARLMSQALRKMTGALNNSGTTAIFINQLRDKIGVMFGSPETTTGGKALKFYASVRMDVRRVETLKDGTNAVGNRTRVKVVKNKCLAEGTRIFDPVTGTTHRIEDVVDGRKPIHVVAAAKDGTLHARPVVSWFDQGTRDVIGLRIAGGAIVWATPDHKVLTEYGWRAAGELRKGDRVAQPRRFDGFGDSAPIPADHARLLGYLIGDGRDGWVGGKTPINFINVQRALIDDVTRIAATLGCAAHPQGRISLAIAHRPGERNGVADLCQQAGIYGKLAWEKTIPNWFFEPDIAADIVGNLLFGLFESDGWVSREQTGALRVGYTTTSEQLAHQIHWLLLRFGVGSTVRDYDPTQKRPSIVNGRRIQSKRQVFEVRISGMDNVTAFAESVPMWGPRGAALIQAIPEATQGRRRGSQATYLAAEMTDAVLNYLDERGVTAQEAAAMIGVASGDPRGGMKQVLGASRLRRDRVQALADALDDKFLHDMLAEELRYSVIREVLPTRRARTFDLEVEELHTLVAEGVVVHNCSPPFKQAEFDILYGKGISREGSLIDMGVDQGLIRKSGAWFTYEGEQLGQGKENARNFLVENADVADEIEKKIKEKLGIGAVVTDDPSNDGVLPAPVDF
The assay is described as follows: Fluorescence Cell-Free Homogeneous Dose Retest to Identify Inhibitors of RecA-Intein Splicing Activity. [Related pubchem assays (depositor defined):AID2097, AID2223, AID489010, AID492950]. Type of assay: functional.

The target of assay [3] is T3, Heat shock factor protein 1 (Mus musculus, UniProt P38532).
T3 sequence (P38532 whole entry): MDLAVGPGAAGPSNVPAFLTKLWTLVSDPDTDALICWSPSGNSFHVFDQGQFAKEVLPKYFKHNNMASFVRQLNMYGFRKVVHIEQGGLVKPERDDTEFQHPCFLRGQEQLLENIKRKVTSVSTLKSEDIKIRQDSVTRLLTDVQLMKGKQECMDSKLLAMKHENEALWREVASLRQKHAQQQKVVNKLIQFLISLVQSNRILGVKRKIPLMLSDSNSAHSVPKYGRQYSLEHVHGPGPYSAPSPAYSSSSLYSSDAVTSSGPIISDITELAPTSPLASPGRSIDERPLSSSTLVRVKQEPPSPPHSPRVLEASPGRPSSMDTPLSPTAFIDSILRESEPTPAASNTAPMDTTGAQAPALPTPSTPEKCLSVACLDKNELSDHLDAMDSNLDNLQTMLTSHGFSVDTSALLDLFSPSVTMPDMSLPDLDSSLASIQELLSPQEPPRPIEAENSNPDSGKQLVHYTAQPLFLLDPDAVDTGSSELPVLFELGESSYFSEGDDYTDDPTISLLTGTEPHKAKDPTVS
The assay is described as follows: enhancement of HSF1-driven luciferase signal – cell-based, NIH3T3, luminescence, dose retest, confirmation (AID 435004).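 Also: stress induced by proteasome inhibitor MG132 added 30 min after compound; luciferase reporter driven by HSF1 response element in NIH3T3 cells; actives raise luminescence as potentiators of the MG132 stress response.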 It is filed as functional.

The target in assay [4] is Luciferin 4-monooxygenase (Photinus pyralis, UniProt P08659). The assay is described as follows: inhibition of purified Photinus pyralis luciferase – biochemical, luminescence, dose response (AID 1891).
Luciferin 4-monooxygenase, sequence (P08659 whole entry): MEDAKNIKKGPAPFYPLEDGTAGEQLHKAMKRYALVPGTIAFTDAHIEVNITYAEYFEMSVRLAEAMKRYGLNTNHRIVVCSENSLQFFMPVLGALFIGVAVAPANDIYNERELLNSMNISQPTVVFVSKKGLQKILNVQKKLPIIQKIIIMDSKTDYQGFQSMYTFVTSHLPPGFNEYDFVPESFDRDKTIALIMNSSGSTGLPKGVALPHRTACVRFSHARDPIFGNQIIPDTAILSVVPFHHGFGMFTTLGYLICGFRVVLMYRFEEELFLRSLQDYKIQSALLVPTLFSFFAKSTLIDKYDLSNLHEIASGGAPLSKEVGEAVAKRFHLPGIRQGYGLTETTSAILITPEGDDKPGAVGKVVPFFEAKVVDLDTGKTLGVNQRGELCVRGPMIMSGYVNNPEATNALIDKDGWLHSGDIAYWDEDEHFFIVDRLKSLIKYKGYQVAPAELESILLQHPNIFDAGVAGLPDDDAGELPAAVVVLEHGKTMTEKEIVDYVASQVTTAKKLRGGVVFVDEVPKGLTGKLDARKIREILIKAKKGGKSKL
Assay [5] in a line: Luminescence Cell-Based Dose Confirmation HTS to Identify Inhibitors of Platelet Dense Granule Release. [Related pubchem assays: 1663 (Primary HTS), 1678 (Summary of Project)]. Type of assay: functional.
Assay [6] deals with T4, Corticotropin-releasing factor receptor 2/Corticotropin-releasing factor-binding protein (Homo sapiens, UniProt P24387+Q13324).
T4 sequence (Q13324 whole entry): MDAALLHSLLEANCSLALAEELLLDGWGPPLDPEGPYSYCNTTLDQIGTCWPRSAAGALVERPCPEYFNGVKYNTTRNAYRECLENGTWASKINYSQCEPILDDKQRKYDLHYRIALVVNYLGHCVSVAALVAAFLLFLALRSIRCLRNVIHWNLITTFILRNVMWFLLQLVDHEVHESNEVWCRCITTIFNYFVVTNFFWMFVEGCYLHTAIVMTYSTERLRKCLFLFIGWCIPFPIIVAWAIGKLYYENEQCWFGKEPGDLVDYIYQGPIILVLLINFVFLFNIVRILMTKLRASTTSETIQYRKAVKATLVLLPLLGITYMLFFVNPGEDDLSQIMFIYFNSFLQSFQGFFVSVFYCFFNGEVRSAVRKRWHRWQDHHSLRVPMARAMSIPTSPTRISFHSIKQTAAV
T4 sequence (P24387 whole entry): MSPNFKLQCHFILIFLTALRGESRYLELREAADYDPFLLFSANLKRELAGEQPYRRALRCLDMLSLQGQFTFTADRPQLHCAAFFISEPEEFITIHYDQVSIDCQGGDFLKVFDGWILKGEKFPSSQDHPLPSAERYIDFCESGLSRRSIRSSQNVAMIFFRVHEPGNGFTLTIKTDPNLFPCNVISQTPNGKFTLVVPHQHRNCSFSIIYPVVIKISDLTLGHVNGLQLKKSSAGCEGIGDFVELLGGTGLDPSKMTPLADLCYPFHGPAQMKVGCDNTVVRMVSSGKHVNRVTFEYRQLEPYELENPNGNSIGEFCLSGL
The assay is described as follows: activators of CRF receptor 2 with binding protein – uHTS hits, confirmation (AID 602473). Type of assay: functional. The note with it: read-out: EC50_Mean.

Calls of active or inactive are those of the source. Rule as the data show it, for most assays here: actives have a measured EC50 and inactives only a lower limit. Where only a bound is given, the exact number is not on record here.

By AC50 is commonly meant the concentration at which the activity in the assay is half-maximal. Regarding `CCOC(=O)c1c(C)nc2c(c1-c1ccc(Cl)cc1)C(=O)CC(C)(C)C2`, in assay [1], the AC50 was 12.2 µM (active).

Turning to `CN(C)CCSc1n[nH]c2nc3ccccc3c-2n1`, the AC50 in assay [2] is 7.37 µM (active). The EC50 at Protein RecA was 2.79 µM (active). For `CCOC(=O)c1cc(NC(=O)COc2ccc([N+](=O)[O-])cc2)cc(C(=O)OCC)c1`, the EC50 in assay [3] is > 260 µM (inactive). Regarding `CCOc1ccc(CN(CCO)CCO)cc1C(=O)OC`, the EC50 in assay [4] and in assay [5] was > 112 µM (not active) each time. Turning to `O=S(=O)(Nc1ccc(-c2ccc3nncn3n2)cc1)c1cc(F)ccc1F`, the EC50 in assay [4] and in assay [5] was > 112 µM (not active) in each case.

Regarding `CC(C)(Oc1ccc(Cl)cc1)C(=O)Nc1ccc2oc(-c3ccncc3)nc2c1`, the EC50 in assay [3] was > 260 µM (inactive). As for `Cc1ccc(Cl)cc1NC(=O)c1cc(S(=O)(=O)N2CCOCC2)cn1C`, the EC50 in assay [4] and in assay [5] was > 112 µM (not active) throughout.

`CCOC(=O)C(C)n1cnc2c(nnn2-c2ccc(F)cc2)c1=O` (stereo not given): the EC50 in assay [4] and in assay [5] was > 112 µM (not active) throughout. With `O=C(Nc1ccc(O)c(-c2nc3ccccc3o2)c1)C1(c2ccc(Cl)cc2)CCCC1`, in assay [3], the EC50 was > 260 µM (inactive). For `Cc1cccc(C)c1NS(=O)(=O)c1ccc(NC(=O)c2ccc(Cl)c([N+](=O)[O-])c2)cc1`, the AC50 in assay [1] was 1.46 µM (active). For the molecule `CCOC(=O)c1cc(C)sc1NC(=O)CSC1=NCCS1`, the AC50 in assay [2] was 12 µM (active). Besides, the EC50 at Protein RecA is 21.4 µM (active). As for `O=C(Nc1nccs1)c1ccc(COc2ccccc2Cl)o1`, the AC50 in assay [1] was 2.45 µM (active). Turning to `CCN(CC)CCN1C(=O)C(O)=C(C(C)=O)C1c1ccccc1[N+](=O)[O-]` (stereo not given), the AC50 in assay [2] is 10 µM (active). For the same molecule, the EC50 on Protein RecA was 3.71 µM (active).

Regarding `Cn1cnc([N+](=O)[O-])c1Oc1cccc2ccccc12`, the concentration at half-maximal activity (AC50) in assay [2] was 28.3 µM (active). The EC50 on Protein RecA was 13.2 µM (active). `O=S(=O)(NC1CCCC1)c1ccc(S(=O)(=O)NC2CCCC2)cc1`: the EC50 in assay [6] was > 53 µM (inactive). Take `COc1ccccc1Nc1nc(NCc2ccco2)c2ccccc2n1`: the EC50 in assay [4] and in assay [5] was > 112 µM (not active) throughout.

On to `O=C1CC(c2ccc(F)cc2)CC2=Nc3ccccc3NC=C12` (stereo not given), for which the AC50 in assay [1] was 3.58 µM (active). Consider `O=C(O)c1c(Cl)c(Cl)c(Cl)c(Cl)c1C(=O)N1CCCC1`, for which the EC50 in assay [3] is > 260 µM (inactive). The same measure, in the same setting: with `COC(=O)C1CCN(C(=O)COC(=O)c2ccc(OC)c(S(=O)(=O)N3CCCc4ccccc43)c2)CC1` the figure was > 260 µM (inactive). Take `CCCCOP(=O)(OCCCC)C1(NS(=O)(=O)c2ccccc2)C=CC(=O)c2ccccc21` (stereo not given): the half-maximal activity concentration (AC50) in assay [2] was 4.8 µM (active). Also, on Protein RecA, the EC50 was 1.82 µM (active). With `COC(=O)c1ccc(N2CCN(CC(=O)c3ccc(-c4ccccc4)cc3)CC2)c([N+](=O)[O-])c1`, the EC50 in assay [4] and in assay [5] was > 112 µM (not active) in each case. Consider `Cc1ccc(NC(=O)CSCc2ccc(F)cc2)cc1`, for which the EC50 in assay [4] and in assay [5] was > 112 µM (not active) in each case.

In the case of `CC(NC(=O)c1cc(S(=O)(=O)N2CCCC2)cn1C)c1ccccc1` (stereo not given), the EC50 in assay [4] and in assay [5] was > 112 µM (not active) throughout. `COc1ccc(C2NC(=O)c3[nH]nc(C)c32)c(OC)c1` (stereo not given): the EC50 was > 112 µM (not active) in assay [4] and 2.83 µM (active) in assay [5]. The like results for `Cc1ccc(Nc2nc(N3CCOCC3)c3ccccc3n2)cc1` were, in that order, > 112 µM (not active) and > 112 µM (not active).

On to `Cc1[nH]c2ccccc2c1C(=O)CSc1nncn1C`, for which the EC50 in assay [4] and in assay [5] was > 112 µM (not active) in each case.

`COc1ccc(OC)c(NC(=O)NNC(=O)COc2ccc(-c3ccccc3)cc2)c1`: in assay [1], the AC50 was 47.3 µM (active).

With `CCc1ccc(CN2C(=O)c3ccccc3C2C(=O)NCC2CCCO2)cc1` (stereo not given), the EC50 in assay [3] was 137 µM (active). For `CC1=CC(=O)OC2CC3OC4C[C@@H](C)C5OC6CC7O[C@]8(C)C/C=C\C9OC%10CC%11OC(CC(C)C%12OCCO%12)CC(O)[C@]%11(C)OC%10CC9OC8C[C@]7(C)O[C@]6(C)CCC5OC4C[C@]3(C)OC12` (stereo not given in full), the EC50 in assay [6] was 5.68 µM (active). On to `COc1cccc(/N=C2\C(Cl)=C(O)OC2OC(=O)c2ccco2)c1` (stereo not given), for which, in assay [2], the AC50 was 22.3 µM (active). The EC50 at Protein RecA was 14.6 µM (active).

Take `O=c1c(/C=N/Nc2ccccc2)c(Sc2nnnn2-c2ccccc2)nc2ccccn12`: the EC50 in assay [6] is 10.1 µM (active). On to `CC(C)c1ccc(/C=N/NC(=O)c2nnn(-c3nonc3N)c2CSC2=NCCS2)cc1`, for which the half-maximal activity concentration (AC50) in assay [2] was 9.47 µM (active). In addition, the EC50 on Protein RecA is 8.86 µM (active).

These data come from ChEMBL document CHEMBL1201862, “PubChem BioAssay data set” (2004).
